The term EC50 denotes the concentration at which the effect is half-maximal.

In assay [1] the target is T1, CFTR channel (Homo sapiens, UniProt P13569). Description: 125I radioactive iodide efflux in CHO-CFTR(+) cells. The assay is classed as cell-based. Details: expressed in transfected cells; host or cells: CHO (Chinese hamster ovary) cells, CHO-CFTR(+). As to conditions: for effect of inhibitor on activated 125I efflux: CHO-CFTR(+) cells stimulated by octan-1-ol 1 mM, FSK 1 μM or both, glibenclamide 100 μM, H-89 30 μM, PKC inhibitor; for order of activation of CFTR by n-alkanols: 1 mM, 125I efflux or patch-clamp; for activation of CFTR (125I efflux), in words: n-alkanols 1 mM, FSK 1 μM, A23187 2 μM, α-GA 10 and 100 μM. On the procedure: The cells are cultured in 24-well plates with a dilution to 1/10 after passage. […] The operation is repeated every 30 s for 2 to 6 min. […] All the samples are counted in a gamma counter (Kontron). The precipitated proteins are solubilized in 0.1N NaOH and quantified using a calorimetric test.
T1 sequence (P13569 whole entry): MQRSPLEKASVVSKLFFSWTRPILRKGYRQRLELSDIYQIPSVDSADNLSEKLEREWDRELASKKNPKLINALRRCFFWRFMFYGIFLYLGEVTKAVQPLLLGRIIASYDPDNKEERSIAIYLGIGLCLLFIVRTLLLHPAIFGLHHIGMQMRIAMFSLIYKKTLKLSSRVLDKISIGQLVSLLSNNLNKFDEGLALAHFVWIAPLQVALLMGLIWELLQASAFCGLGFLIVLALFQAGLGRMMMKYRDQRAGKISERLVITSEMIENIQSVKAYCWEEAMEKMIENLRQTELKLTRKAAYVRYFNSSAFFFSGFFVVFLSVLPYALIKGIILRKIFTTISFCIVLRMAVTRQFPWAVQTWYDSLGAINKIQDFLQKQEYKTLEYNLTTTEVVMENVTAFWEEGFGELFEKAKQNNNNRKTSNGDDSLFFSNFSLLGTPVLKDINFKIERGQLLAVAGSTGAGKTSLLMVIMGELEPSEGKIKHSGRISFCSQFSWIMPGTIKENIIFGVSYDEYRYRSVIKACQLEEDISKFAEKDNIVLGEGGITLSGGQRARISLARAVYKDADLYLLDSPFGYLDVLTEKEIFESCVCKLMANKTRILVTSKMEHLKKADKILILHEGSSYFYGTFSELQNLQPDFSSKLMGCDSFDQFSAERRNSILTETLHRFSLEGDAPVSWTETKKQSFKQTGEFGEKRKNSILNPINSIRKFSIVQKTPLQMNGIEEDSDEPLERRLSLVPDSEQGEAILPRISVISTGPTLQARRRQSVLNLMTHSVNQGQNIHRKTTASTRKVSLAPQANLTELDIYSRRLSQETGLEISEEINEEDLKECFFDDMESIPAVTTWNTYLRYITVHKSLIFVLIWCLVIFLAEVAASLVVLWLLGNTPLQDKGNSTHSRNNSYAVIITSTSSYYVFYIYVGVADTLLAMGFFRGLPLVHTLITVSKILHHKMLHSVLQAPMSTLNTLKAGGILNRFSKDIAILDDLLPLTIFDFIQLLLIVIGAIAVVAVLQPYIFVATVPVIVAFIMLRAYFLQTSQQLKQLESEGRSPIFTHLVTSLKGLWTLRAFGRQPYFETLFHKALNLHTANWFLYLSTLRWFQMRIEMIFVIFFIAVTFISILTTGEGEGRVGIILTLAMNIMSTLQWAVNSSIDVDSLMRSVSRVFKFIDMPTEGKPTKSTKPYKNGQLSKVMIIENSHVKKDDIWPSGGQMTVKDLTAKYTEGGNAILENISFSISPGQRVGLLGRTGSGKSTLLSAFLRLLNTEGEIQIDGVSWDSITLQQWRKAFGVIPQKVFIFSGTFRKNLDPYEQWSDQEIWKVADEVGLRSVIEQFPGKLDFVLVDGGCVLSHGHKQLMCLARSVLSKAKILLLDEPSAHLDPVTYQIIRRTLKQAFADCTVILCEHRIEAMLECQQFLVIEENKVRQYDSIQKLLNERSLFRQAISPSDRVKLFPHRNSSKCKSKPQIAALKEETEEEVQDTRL
(§1) The tracer contained in the cell layer at the beginning of the efflux is calculated as the sum of the samples and of the extracts counted. The efflux curves are constructed by expressing the percentage of the content remaining in the cell layer (I %) with respect to time. The stimulated or nonstimulated efflux rate constants (k, min^−1) are determined by smoothing the efflux curves to a monoexponential function I %=100*exp(−kt) using a linear regression of the neperian logarithm of the data, k is used to calculate the iodide released into the medium with respect to time. The hypothesis is made that, in the presence of a stimulator, the efflux is the sum of two iodide effluxes occurring in parallel: a basal efflux and a stimulated efflux characterized, respectively, by the constants kb and ks. The total net efflux is then described by the equation It^%=100*(1−exp(−ktt)) where kt is the sum of kb and ks. Finally, ks calculated as kt−kb is used to establish a dose-response relationship for antagonists. The data is expressed as means ±SD, and the t-test is used to determine the significances. The concentration-response curves for agonists or for antagonists are smooth using the hyperbolic equation Y=Ymax*X/(EC5C+X), where Y is the response. Y begins at the basal level and progresses to the plateau (Ymax), X is the concentration and the half-effect values (EC are calculated using GraphPad Prism v3.0 (GraphPad software)).
(The patch-clamp technique gives a direct electrical read-out from membranes.)

The target of assay [2] is T2, ΔF508 mutated CFTR channel (Homo sapiens, UniProt P13569, DEL508-508).
T2 construct: epithelial cells extracted from respiratory airways of patients suffering from cystic fibrosis (homozygous ΔF508); endogenous in cells; host or cells: JME/CF15 human airway epithelial cells (homozygous ΔF508)
T2 sequence (P13569 with tags, fused parts or gaps DEL508-508): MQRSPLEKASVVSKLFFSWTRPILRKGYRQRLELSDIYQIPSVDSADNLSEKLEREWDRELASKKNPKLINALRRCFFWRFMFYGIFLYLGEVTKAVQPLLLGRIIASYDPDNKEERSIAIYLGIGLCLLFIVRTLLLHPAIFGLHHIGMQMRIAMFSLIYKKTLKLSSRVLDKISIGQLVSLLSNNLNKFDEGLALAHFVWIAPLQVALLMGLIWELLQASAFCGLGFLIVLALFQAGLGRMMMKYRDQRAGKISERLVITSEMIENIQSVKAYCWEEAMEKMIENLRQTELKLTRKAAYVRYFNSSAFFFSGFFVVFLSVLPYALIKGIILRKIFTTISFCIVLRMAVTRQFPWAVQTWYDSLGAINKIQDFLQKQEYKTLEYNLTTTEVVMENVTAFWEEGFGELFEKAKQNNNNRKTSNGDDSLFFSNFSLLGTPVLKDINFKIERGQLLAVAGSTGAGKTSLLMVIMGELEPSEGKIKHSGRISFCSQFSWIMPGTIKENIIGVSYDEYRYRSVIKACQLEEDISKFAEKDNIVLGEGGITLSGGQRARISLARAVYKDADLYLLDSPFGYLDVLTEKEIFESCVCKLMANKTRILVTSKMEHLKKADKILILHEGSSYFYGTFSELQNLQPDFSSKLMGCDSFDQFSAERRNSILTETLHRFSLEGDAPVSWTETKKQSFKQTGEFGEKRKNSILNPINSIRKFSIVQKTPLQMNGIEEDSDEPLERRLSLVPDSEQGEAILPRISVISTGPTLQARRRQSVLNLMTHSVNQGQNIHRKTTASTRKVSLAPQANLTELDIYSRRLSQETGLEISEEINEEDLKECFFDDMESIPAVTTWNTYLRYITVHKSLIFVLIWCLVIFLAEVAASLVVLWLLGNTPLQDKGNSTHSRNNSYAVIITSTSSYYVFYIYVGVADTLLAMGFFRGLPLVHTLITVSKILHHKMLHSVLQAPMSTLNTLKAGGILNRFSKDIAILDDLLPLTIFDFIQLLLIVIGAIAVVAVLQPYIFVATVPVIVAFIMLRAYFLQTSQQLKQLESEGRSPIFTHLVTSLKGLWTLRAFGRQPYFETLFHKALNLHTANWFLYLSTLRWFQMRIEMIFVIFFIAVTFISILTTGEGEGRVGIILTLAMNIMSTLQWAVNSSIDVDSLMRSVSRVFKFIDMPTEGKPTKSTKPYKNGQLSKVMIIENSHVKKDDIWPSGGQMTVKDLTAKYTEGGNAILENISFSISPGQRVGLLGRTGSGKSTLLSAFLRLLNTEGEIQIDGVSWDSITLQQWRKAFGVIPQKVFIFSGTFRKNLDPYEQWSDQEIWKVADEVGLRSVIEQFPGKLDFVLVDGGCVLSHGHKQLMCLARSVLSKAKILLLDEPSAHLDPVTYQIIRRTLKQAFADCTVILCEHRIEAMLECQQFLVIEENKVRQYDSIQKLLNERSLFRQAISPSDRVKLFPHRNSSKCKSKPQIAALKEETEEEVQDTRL
Description: iodide efflux in JME/CF15 human bronchial epithelial cells from cystic fibrosis patients. The assay is classed as cell-based. As to conditions: glibenclamide 100 μM, DIDS 500 μM. On the procedure: (§2) The CFTR studies are also carried out on Calu-3 cells (ATCC No. HTB-55), which are human pulmonary epithelial cells endogenously expressing the CFTR channel. These cells are cultured under the same culture conditions as the CHO cells. The study of the mutated CFTR channel is carried out on JME/CF15 cells, which are epithelial cells extracted from respiratory airways of patients suffering from cystic fibrosis (homozygous ΔF508) (Jefferson et al., 1990). These cells therefore express the ΔF508 mutated CFTR channel. These cells are cultured under the same conditions as above, but the culture medium is supplemented with a hormone mixture containing: adenine (180 μM), insulin (5 μg/ml), transferrin (5 μg/ml), hydrocortisone (1.1 μM), triiodothyronine (2 nM), epinephrine (5.5 μM), epidermal growth factor (1.64 nM).
(§3) This technique makes it possible to follow the kinetics of exit of the ^125I radioactive iodide. The cells are cultured in 24-well plates with a dilution to 1/10 after passage. On the fourth day of culture, the drugs to be tested are dissolved in solution according to the desired concentration, at 37° C., in medium B, at pH 7.4, containing, in mM: 137 NaCl, 5.36 KCl, 0.8 mM MgCl2, 1.8 mM CaCl2, 5.5 glucose and 10 HEPES-NaOH. The wells are washed 4 times with 500 μl of medium B. The solution is subsequently replaced with 500 μl of loading solution containing 1 μM KI and 0.5 μCi of ^125INa/ml for 30 min. The kinetics of exit of ^125I are determined after having eliminated the loading solution and washed the wells 4 times with 500 μl of medium B. For the ^125I exit kinetics, 500 μl of medium B containing or not containing the molecules to be tested are incubated for 30 sec in the wells and recovered in a hemolysis tube, so as to be replaced with 500 μl of medium B containing or not containing the molecules to be tested. The operation is repeated every 30 s for 2 to 6 min. At the end of the efflux, the intracellular ions are extracted by adding 1 ml of trichloroacetic acid (7.5%) to the cell layer. All the samples are counted in a gamma counter (Kontron). The precipitated proteins are solubilized in 0.1N NaOH and quantified using a calorimetric test.
as §1, with “The concentration-response curves for agonists or for antagonists are smooth using the hyperbolic equation Y=Ymax*X/(EC5C+X), where Y is the response.” left out

Assay [3] has as its target T3, human CFTR channel endogenously expressed in Calu-3 (Homo sapiens, UniProt P13569).
T3 construct: human pulmonary epithelial cells endogenously expressing the CFTR channel; host or cells: Calu-3 human pulmonary epithelial cells
Kind of assay: iodide efflux in Calu-3 human bronchial epithelial cells. The assay is classed as cell-based. The conditions noted are these: Calu-3; 1 hour treatment; glibenclamide 100 μM, DIDS 500 μM. The method, then: as §2, §3
as §1, with “The concentration-response curves for agonists or for antagonists are smooth using the hyperbolic equation Y=Ymax*X/(EC5C+X), where Y is the response.” left out

Another assay relates to intracellular cAMP level. Description: total intracellular cAMP assay in CHO-CFTR(+) cells. The assay is classed as cell-based, Chinese hamster. As to conditions: 5 min, FSK 1 or 5 μM, alcohols 1 mM. On the procedure:
The CHO cells are cultured for four days in a 24-well culture plate. On the fourth day of culture, each well is rinsed twice with 500 μl of medium B, and 500 μl of this buffer containing the molecule to be tested are added to each well. After incubation at 37° C. for 5 min, the reaction is stopped by adding a cell lysis buffer. The cell lysis is verified with Trypan blue. The amount of cAMP contained in the cells is determined using the Enzyme Immuno Assay kit (Amersham Biotechnology). The cAMP level is expressed in pmol/well ±SD.
In general terms: cAMP levels reflect the balance of adenylyl cyclase and phosphodiesterase activity.

In assay [4] the target is T1, CFTR channel. Kind of assay: whole-cell patch-clamp in CHO-CFTR(+) cells. Type of assay: cell-based. Details: expressed in transfected cells; host or cells: CHO (Chinese hamster ovary) cells, CHO-CFTR(+). The conditions noted are these: glibenclamide 100 μM. The source says: The patch-clamp technique consists in applying a glass pipette or a glass microelectrode to the surface of the cell. By applying slight touch, it is possible to cause the membrane to adhere to the glass. A small piece of membrane (patch) is thus isolated at the end of the pipette. This is the principle of patch-clamp (O. P. Hamill et al., Pflügers Arch., 1981, 391, 85-100; R. Penner, A Practical Guide to Patch Clamping, 1995, In Single Channel Recording, 2nd edition (Eds. B. Sakmann et al.) Plenum Press, New York, 3-30). To do this, the patch-clamp pipette must have a tip of the order of 1 μm in diameter and a resistance of the order of 1-5 MΩ. The resistance of a pipette or of a microelectrode makes it possible to assess the fineness of the tip: the greater the resistance, the finer the tip or the more the electrode is blocked. […] Interactions between the membrane and the glass will form, aided by a slight suction or negative pressure in the pipette. The quality of this interaction (or sealing) is also assessed by measuring the resistance between the glass and the membrane. To measure overall currents in the whole cell configuration, a sealing resistance of 1 GΩ is sufficient.
More specifically, culture dishes (cell support) are placed in an experimentation cell (volume 1 ml) on the platform of an inverted microscope (Nikon) equipped with phase-contrast lighting. The whole-cell configuration is used for recording the cell currents (Hamill et al., 1981). The experiments are carried out at ambient temperature (20-22° C.). The currents are amplified with an Axopatch 200B amplifier (Axon Instrument Ltd) having a 2-5 kHz low-pass filter (Bessel 6-pole filter), and recorded on the hard disk of a PC after digitization at 10-25 kHz. The pipettes are produced from glass tubes 1 mm in diameter (Clark Electromedical Instrument) in four steps with a horizontal drawing device (Bruwn Flaming 97, CA).
The pipettes, filled with an intracellular solution containing, in mM: 60 KCl; 80 NMDG ([…]); 10 HEPES; 5 EGTA; 1 CaCl2; 4 MgATP; 0.2 Na3GTP; pH 7.4, titrated with KOH), having a resistance of 5 MΩ. The potentials are expressed as the difference between the potential of the patch electrode and that of the bath. In the whole-cell configuration, they represent the membrane potential of the cell. The junction potentials that form between the recording electrode and the extracellular medium are eliminated before the contact of the electrode with the cell. […] The current-voltage relationships in the stationary state are determined using slow voltage ramps (20 mV/.s) under an imposed voltage condition. […]

The next assay has as its system CHO-CFTR(-) cells. Description: 125I iodide efflux in CHO-CFTR(-) control cells that do not express CFTR. The assay is classed as cell-based, Chinese hamster. As to conditions: octan-1-ol 0.1 to 5 mM, FSK 5 μM, A23187 2 μM.

T3 sequence (P13569 whole entry): as the sequence (P13569 whole entry) above

On to `O=S(=O)(NCCNC/C=C/c1ccc(Br)cc1)c1cccc2cnccc12` [H-89, reference compound], for which the “effect of inhibitor on activated 125I efflux” value on CFTR channel [1] is “inhibited”.
Take `CCCCCCCO` [heptan-1-ol]: on CFTR channel [1], the “order of activation of CFTR by n-alkanols” value (“order of activation of CFTR” for short) is reported as “hexan-1-ol<heptan-1-ol<octan-1-ol<octan-2-ol<decan-1-ol”. The “activation of CFTR (125I efflux), in words” value (“activation of CFTR … in words” for short) at CFTR channel [1] (CHO-CFTR(+) cells) is “increase in activation of CFTR”.
As to butan-1-ol [reference compound], the “activation of CFTR … in words” value at CFTR channel [1] (CHO-CFTR(+) cells) is recorded as “not significantly different from the unstimulated efflux”; at CFTR channel [1] (CHO-CFTR(+) cells, listed as butanol), “do not activate the CFTR channel”.
Take `O=S(=O)(O)c1cc(N=C=S)ccc1C=Cc1ccc(N=C=S)cc1S(=O)(=O)O` [DIDS, 4,4′-diisothiocyanatostilbene-2,2′-disulfonic acid, reference compound]: the “effect of inhibitor on CFTR-ΔF508 activation by octan-1-ol” value in assay [2] is given as “insensitive”. Also, the “effect of inhibitor on octan-1-ol-activated efflux” value in assay [3] is “has no effect”.
Regarding `CCCCCCO` [hexan-1-ol], the “order of activation of CFTR” value at CFTR channel [1] was “hexan-1-ol<heptan-1-ol<octan-1-ol<octan-2-ol<decan-1-ol”. Further, the “activation of CFTR … in words” value on CFTR channel [1] (CHO-CFTR(+) cells) was “significantly activates the CFTR channel”. Also, the “effect on intracellular cAMP level” value in the assay with intracellular cAMP level is given as “neither octan-1-ol, hexan-1-ol or ethanol modifies the basal cAMP level”.
As for `C=C[C@@]1(C)CC(=O)[C@]2(O)[C@@]3(C)[C@@H](O)CCC(C)(C)[C@@H]3[C@H](O)[C@H](OC(C)=O)[C@@]2(C)O1` [FSK, forskolin, reference compound], on CFTR channel [1] (EC50 of activation of CFTR (125I efflux rate constant), CHO-CFTR(+) cells, FSK 0.1 to 5 μM), the EC50 is about 500 nM.
With `CCO` [ethanol, reference compound], the “activation of CFTR … in words” value at CFTR channel [1] (CHO-CFTR(+) cells) is on record as “do not activate the CFTR channel”. Also, the “effect on intracellular cAMP level” value in the assay on intracellular cAMP level is on record as “neither octan-1-ol, hexan-1-ol or ethanol modifies the basal cAMP level”.
For `COc1ccc(Cl)cc1C(=O)NCCc1ccc(S(=O)(=O)NC(=O)NC2CCCCC2)cc1` [glibenclamide, reference compound], at CFTR channel [1], the “effect of inhibitor on activated 125I efflux” value is given as “completely inhibited”. For the same compound, the “effect of inhibitor on CFTR-ΔF508 activation by octan-1-ol” value in assay [2] is “inhibited”. Further, the “effect of inhibitor on octan-1-ol-activated efflux” value in assay [3] was “strongly blocked”. For the same compound, the “effect of glibenclamide on FSK- or octan-1-ol-induced current” value on CFTR channel [4] was “completely inhibited”.
As for `CO` [methanol, reference compound], on CFTR channel [1] (CHO-CFTR(+) cells), the “activation of CFTR … in words” value is “not significantly different from the unstimulated efflux”.
On to `CCCCCCCCCCO` [decan-1-ol], for which the “order of activation of CFTR” value on CFTR channel [1] is “hexan-1-ol<heptan-1-ol<octan-1-ol<octan-2-ol<decan-1-ol”. Besides, the “activation of CFTR … in words” value on CFTR channel [1] (CHO-CFTR(+) cells) is reported as “significantly activates the CFTR channel”.
Consider `CNc1ccc2oc(C[C@H]3O[C@@]4(CC[C@H]3C)O[C@H]([C@H](C)C(=O)c3ccc[nH]3)[C@H](C)C[C@H]4C)nc2c1C(=O)O` [A23187, reference compound], for which the “activation of CFTR … in words” value at CFTR channel [1] (CHO-CFTR(+) cells) is on record as “has no effect”. The “effect on basal level of 125I efflux in cells not expressing CFTR” value in the assay on CHO-CFTR(-) cells is reported as “has no effect”.
Turning to `CCCCCCC(C)O` (stereo not drawn) [octan-2-ol], the “order of activation of CFTR” value on CFTR channel [1] is reported as “hexan-1-ol<heptan-1-ol<octan-1-ol<octan-2-ol<decan-1-ol”. Moreover, the “activation of CFTR … in words” value at CFTR channel [1] (CHO-CFTR(+) cells) is recorded as “also activates the CFTR protein”.
